In patent publication US9988373B2, “Nitrogen-containing six-membered cyclic derivatives and pharmaceutical composition comprising the same” (SHIONOGI & CO., LTD., priority 2013, dated 2018):

Target: T1, human P2X7 receptor (Homo sapiens, UniProt Q99572, R270H)
T1 construct: expressed in transfected cells
T1 sequence (Q99572 1-595 R270H): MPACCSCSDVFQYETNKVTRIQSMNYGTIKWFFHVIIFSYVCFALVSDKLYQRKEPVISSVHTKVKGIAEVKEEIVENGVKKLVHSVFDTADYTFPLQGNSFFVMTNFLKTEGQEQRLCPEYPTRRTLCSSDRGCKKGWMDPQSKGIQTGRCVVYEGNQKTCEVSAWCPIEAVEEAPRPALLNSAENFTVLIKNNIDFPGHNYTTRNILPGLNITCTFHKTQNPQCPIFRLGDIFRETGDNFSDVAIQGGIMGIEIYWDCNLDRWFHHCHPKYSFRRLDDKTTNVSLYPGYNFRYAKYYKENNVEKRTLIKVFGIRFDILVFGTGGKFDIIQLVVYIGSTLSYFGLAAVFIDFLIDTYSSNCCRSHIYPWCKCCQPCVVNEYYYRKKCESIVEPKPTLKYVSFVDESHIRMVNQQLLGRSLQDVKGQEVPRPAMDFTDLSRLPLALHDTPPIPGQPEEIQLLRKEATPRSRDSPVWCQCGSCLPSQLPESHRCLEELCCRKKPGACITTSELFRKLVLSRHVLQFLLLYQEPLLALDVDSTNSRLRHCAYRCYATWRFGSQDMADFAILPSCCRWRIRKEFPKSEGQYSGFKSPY
Experiment: Evaluation of a human P2X7 receptor inhibitory activity (Yo-Pro uptake, BzATP stimulation, FLIPR TETRA)
Assay type: cell-based
Settings: antagonistic activity for the human P2X7 receptor, 1321N1 cell transfected with the human P2X7 receptor gene, Yo-Pro fluorescence
Procedure: Test Example 1 Evaluation of a Human P2X7 Receptor Inhibitory Activity
Stably expressing cell line (1321N1 cell transfected with the human P2X7 receptor gene (GenBank accession number NM_002562.5 including T606C and G952A SNP)) was used. The cells were seeded in a 384-well microtiter plate at a concentration of 8000 cells/well and cultured in the medium (10% fetal bovine serum, 25 mM HEPES, 1% penicillin and streptomycin in DMEM) for one day at 37° C. under 5% carbon dioxide atmosphere. After replacing with 20 μL of the HBSS buffer (20 mM HEPES. 55.6 mM D-glucose, 1×HBSS(−), pH 7.4-7.5), 15 μL of 17.3 μM Yo-Pro solution in the HBSS buffer was added. The plate was placed in high-throughput cellular screening system FLIPR TETRA (Molecullar Devices, LLC.) and 15 μL of 130 μM BzATP solution in the HBSS buffer was added. Measurement of fluorescence intensity by FLIPR TETRA was started. After eight minutes, 15 μL of DMSO solutions containing different concentrations of the compound of the present invention as prepared by dilution with the HBSS buffer were dispensed to each well through the built-in automatic dispenser, and the measurement of fluorescence intensity was continued for 20 minutes. The maximum fluorescence intensity without the compound of the present invention is calculated as 0% inhibition and the maximum fluorescence intensity when the reference compound was added is calculated as 100% inhibition. Changing values of fluorescence intensity by the compound of the present invention were calculated by difference between maximum and minimum fluorescence intensity for 20 minutes. Inhibition ratios (%) were calculated from the following equation:
[formula] IC50 was calculated using logistic approximation.

Structure (SMILES) | IC50
COc1cn(Cc2cccc3ccccc23)c(-c2cccc(C(F)(F)F)c2Cl)nc1=O [II-055] | 20 nM
O=c1nc(-c2cccc(C(F)(F)F)c2Cl)n(Cc2ccccc2)cc1OCC(F)(F)F [II-033] | 60 nM
COc1cn(Cc2ccccc2)c(-c2cccc(C(F)(F)F)c2Cl)nc1=O [II-008] | 41 nM

Same assay, conditions: antagonistic activity for the human P2X7 receptor, 1321N1 cell transfected with the human P2X7 receptor gene, Yo-Pro fluorescence, class symbols

Structure (SMILES) | IC50
COc1cn(Cc2ccccc2)c(C2=C[C@H]3CC[C@@H]2C3)nc1=O [II-071] | 1000 to 10000 nM
COc1cccc(Cn2cc(Br)c(=O)cc2-c2cccc(C(F)(F)F)c2Cl)c1 [Compound I-009] | 100 to 500 nM
N#Cc1ccccc1Cn1ccc(=O)cc1-c1cccc(C(F)(F)F)c1Cl [Compound I-023] | 500 to 1000 nM
COc1cn(Cc2ccccn2)c(-c2cccc(C(F)(F)F)c2Cl)nc1=O [II-018] | 100 to 500 nM
O=c1nc(-c2cccc(C(F)(F)F)c2Cl)n(Cc2ccccc2)cc1OCCO [II-025] | 50 to 100 nM
N#Cc1cccc(Cn2cc(N3CCCC3)c(=O)cc2-c2cccc(C(F)(F)F)c2Cl)c1 [Compound I-004] | 500 to 1000 nM
CC(=O)c1cn(Cc2ccccc2)c(-c2cccc(C(F)(F)F)c2Cl)cc1=O [Compound I-014] | 100 to 500 nM
O=c1nc(-c2cccc(C(F)(F)F)c2Cl)n(Cc2ccccc2)cc1OC(F)F [II-035] | 100 to 500 nM
COc1cn(Cc2ccccc2)c(-c2cc(Cl)ccc2Cl)nc1=O [II-101] | 1000 to 10000 nM
O=c1ccn(Cc2ccccc2F)c(-c2cccc(C(F)(F)F)c2Cl)c1 [Compound I-022] | 100 to 500 nM
N#Cc1cn(Cc2ccccc2)c(-c2cccc(C(F)(F)F)c2Cl)nc1=O [II-037] | < 50 nM
COc1cn(Cc2ccccc2C)c(-c2ccccc2F)nc1=O [II-061] | 1000 to 10000 nM
CC(C)NC(=O)Nc1cccc(Cn2ccc(=O)cc2-c2cccc(C(F)(F)F)c2Cl)c1 [Compound I-037] | 100 to 500 nM
Cc1ccccc1Cn1cc(C)c(=O)nc1-c1cccc(C(F)(F)F)c1Cl [II-010] | < 50 nM
COc1cn(Cc2ccc(C)cc2)c(-c2cccc(C(F)(F)F)c2Cl)nc1=O [II-016] | 500 to 1000 nM
COc1cn(Cc2ccccc2C)c(-c2cccc(C(F)(F)F)c2Cl)nc1=O [II-001] | < 50 nM
CN(C)c1cn(Cc2ccccc2)c(-c2cccc(C(F)(F)F)c2Cl)nc1=O [II-051] | 100 to 500 nM

Structure (SMILES) | IC50
COc1cn(Cc2ccccc2C)c(-c2ccc(F)cc2)nc1=O [II-063] | 1000 to 10000 nM
COc1cn(Cc2ccccc2C)c(-c2ccccc2C(F)(F)F)nc1=O [II-064] | 500 to 1000 nM
COc1cn(Cc2ccccc2SC(F)(F)F)c(-c2cccc(C(F)(F)F)c2Cl)nc1=O [II-098] | 100 to 500 nM
COc1cn(Cc2ccccc2C)c(-c2cccc(Cl)c2)nc1=O [II-059] | 1000 to 10000 nM
O=c1ccn(Cc2ccccc2Cl)c(-c2cccc(C(F)(F)F)c2Cl)c1 [Compound I-059] | 100 to 500 nM
O=c1ccn(Cc2ccc(-c3ccccc3)cc2)c(-c2cccc(C(F)(F)F)c2Cl)c1 [Compound I-043] | 1000 to 10000 nM
Cc1ccccc1Cn1cc(F)c(=O)nc1-c1cccc(C(F)(F)F)c1Cl [II-011] | < 50 nM
COc1cn(Cc2ccccc2F)c(-c2cccc(C(F)(F)F)c2Cl)nc1=O [II-005] | 50 to 100 nM
COc1cn(Cc2ccccc2)c(C2=CCSCC2)nc1=O [II-072] | 1000 to 10000 nM
COc1cn(C(C)c2ccccc2)c(-c2cccc(C(F)(F)F)c2Cl)nc1=O (stereo not shown) [II-039] | 50 to 100 nM
O=c1ccn(Cc2cccc(=O)[nH]2)c(-c2cccc(C(F)(F)F)c2Cl)c1 [Compound I-034] | 500 to 1000 nM
O=c1ccn(Cc2cccnc2)c(-c2cccc(C(F)(F)F)c2Cl)c1 [Compound I-053] | 500 to 1000 nM
COc1cn(Cc2ccncc2)c(-c2cccc(C(F)(F)F)c2Cl)nc1=O [II-020] | 1000 to 10000 nM
COc1cn(Cc2ccccc2)c(C2=CCCCCC2)nc1=O [II-069] | 1000 to 10000 nM
COc1cn(Cc2ccccc2C)c(-c2cccc(F)c2)nc1=O [II-062] | 1000 to 10000 nM
Cc1ccccc1Cn1cc(C#N)c(=O)nc1-c1cccc(C(F)(F)F)c1Cl [II-091] | < 50 nM
CCOc1cn(Cc2ccccc2)c(-c2cccc(C(F)(F)F)c2Cl)nc1=O [II-024] | 50 to 100 nM
